The values that follow are results of earlier work, collected in patent US20050065208A1, “Benzofuranes and their use in the treatment of atrial fibrillation” (priority 2001, published 2005).

The first data set addresses T1, IK(Ado), adenosine activated K-current (Homo sapiens, UniProt P48544+P48549).
T1 construct: electrophysiology technique applied to cardiomyocyte cultures; endogenous in cells
T1 sequence (P48549 1-501): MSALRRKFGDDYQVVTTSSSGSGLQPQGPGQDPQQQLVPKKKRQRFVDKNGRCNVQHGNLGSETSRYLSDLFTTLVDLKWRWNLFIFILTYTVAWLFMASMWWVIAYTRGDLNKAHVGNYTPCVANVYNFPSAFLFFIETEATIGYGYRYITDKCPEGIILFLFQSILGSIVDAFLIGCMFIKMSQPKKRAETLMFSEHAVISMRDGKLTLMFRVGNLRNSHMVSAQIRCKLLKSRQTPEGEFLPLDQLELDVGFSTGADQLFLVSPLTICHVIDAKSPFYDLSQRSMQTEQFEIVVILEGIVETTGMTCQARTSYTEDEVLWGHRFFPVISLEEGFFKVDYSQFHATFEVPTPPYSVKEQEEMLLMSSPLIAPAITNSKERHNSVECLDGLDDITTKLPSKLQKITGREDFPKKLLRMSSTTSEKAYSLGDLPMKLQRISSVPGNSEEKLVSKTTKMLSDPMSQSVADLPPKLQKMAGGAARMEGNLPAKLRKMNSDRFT
T1 sequence (P48544 1-419): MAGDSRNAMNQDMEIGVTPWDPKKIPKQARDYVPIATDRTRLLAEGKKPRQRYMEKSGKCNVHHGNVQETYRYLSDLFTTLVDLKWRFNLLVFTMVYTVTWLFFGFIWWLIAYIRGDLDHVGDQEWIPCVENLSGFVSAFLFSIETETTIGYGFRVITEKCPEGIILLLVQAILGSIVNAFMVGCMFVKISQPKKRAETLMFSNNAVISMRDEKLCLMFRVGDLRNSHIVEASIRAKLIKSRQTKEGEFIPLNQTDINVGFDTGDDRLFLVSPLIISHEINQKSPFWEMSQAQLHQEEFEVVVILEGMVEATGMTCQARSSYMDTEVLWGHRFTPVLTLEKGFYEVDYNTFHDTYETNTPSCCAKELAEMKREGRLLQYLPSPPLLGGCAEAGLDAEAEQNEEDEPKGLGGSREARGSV
As to conditions: current induced by adenosine; literature value; read-out: Inhibition of IK (Ado) Induced by Adenosine (IC50); cited from earlier work.
Take `CC(C)NCC(O)COc1cccc2ccccc12` (stereo not shown) [Propranolol]: the IC50 is 8000 nM.

The target in another data set is T2, IK(ACh), AcetylCholine activated K-current (Homo sapiens, UniProt P48544+P48549).
T2 construct: electrophysiology technique applied to cardiomyocyte cultures; endogenous in cells
T2 sequence (P48549 1-501): T1 sequence (P48549 1-501)
T2 sequence (P48544 1-419): T1 sequence (P48544 1-419)
Details: key to Blocking activity on IK(ACh): Yes: The compound has been demonstrated to inhibit the particular current (reference within parenthesis).; No: The compound has been demonstrated to not inhibit the particular current (reference within parenthesis).; U: No data regarding interaction of the compound with the particular current has been found in the literature. Particulars: Table 2, literature; cited from earlier work.
Consider `CCN(CC)CCCN(c1ccccc1)C1Cc2ccccc2C1` [Aprinidine], for which the “Blocking activity on IK(ACh)” value was “Yes”.
For the molecule `CC(C)N(CCC(C(N)=O)(c1ccccc1)c1ccccn1)C(C)C` (stereo not shown) [Disopyramide], the “Blocking activity on IK(ACh)” value was “Yes”.
Take `CCCCc1oc2ccc(NS(C)(=O)=O)cc2c1C(=O)c1ccc(OCCCN(CCCC)CCCC)cc1` [Dronedarone]: the “Blocking activity on IK(ACh)” value is “Yes”.
As to `O=C(NCC1CCCCN1)c1cc(OCC(F)(F)F)ccc1OCC(F)(F)F` (stereo not shown) [Flecainide], the “Blocking activity on IK(ACh)” value is “Yes”.
On to `C=C[C@H]1C[N@@]2CC[C@H]1C[C@@H]2[C@@H](O)c1ccnc2ccc(OC)cc12` [Quinidine], for which the “Blocking activity on IK(ACh)” value was “Yes”.

The same data set, now with this note: current induced by ACh or carbachol; literature value; read-out: Inhibition of IK (ACh) (Induced by ACh or Carbachol) (IC50); cited from earlier work.
Regarding `CCN(CC)CCCN(c1ccccc1)C1Cc2ccccc2C1` [Aprinidine], the IC50 was 400 nM.
As to `CC(C)N(CCC(C(N)=O)(c1ccccc1)c1ccccn1)C(C)C` (stereo not shown) [Disopyramide], the IC50 is 1700 nM.
As for `CCCCc1oc2ccc(NS(C)(=O)=O)cc2c1C(=O)c1ccc(OCCCN(CCCC)CCCC)cc1` [Dronedarone], the IC50 is 10 nM.
Turning to `O=C(NCC1CCCCN1)c1cc(OCC(F)(F)F)ccc1OCC(F)(F)F` (stereo not shown) [Flecainide], the half-maximal inhibitory concentration (IC50) is 3600 nM.
Consider `CC(C)NCC(O)COc1cccc2ccccc12` (stereo not shown) [Propranolol], for which the IC50 was 56000 nM.
Take `C=C[C@H]1C[N@@]2CC[C@H]1C[C@@H]2[C@@H](O)c1ccnc2ccc(OC)cc12` [Quinidine]: the IC50 is 1600 nM.
`Cc1cccc(C)c1NC(=O)CC12CCCN1CCC2` [SUN 1165]: the concentration for half-maximal inhibition (IC50) is 29000 nM.

The target of the next data set is T3, IK(ATP), ATP-sensitive K-current (Homo sapiens, UniProt Q14654).
T3 construct: electrophysiology technique applied to cardiomyocyte cultures; endogenous in cells; current induced with dinitrophenole
T3 sequence (Q14654 whole entry): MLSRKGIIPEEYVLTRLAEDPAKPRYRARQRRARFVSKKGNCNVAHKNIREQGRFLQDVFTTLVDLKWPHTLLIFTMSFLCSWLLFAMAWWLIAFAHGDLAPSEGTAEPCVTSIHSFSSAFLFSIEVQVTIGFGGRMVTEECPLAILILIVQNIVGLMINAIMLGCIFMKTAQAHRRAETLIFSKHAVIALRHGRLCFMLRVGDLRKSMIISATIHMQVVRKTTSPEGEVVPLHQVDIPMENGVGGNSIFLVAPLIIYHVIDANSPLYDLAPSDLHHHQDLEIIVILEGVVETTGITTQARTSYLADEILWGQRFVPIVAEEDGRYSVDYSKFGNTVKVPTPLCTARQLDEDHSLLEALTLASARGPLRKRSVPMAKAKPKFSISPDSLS
T3 sequence (O60706 whole entry partner): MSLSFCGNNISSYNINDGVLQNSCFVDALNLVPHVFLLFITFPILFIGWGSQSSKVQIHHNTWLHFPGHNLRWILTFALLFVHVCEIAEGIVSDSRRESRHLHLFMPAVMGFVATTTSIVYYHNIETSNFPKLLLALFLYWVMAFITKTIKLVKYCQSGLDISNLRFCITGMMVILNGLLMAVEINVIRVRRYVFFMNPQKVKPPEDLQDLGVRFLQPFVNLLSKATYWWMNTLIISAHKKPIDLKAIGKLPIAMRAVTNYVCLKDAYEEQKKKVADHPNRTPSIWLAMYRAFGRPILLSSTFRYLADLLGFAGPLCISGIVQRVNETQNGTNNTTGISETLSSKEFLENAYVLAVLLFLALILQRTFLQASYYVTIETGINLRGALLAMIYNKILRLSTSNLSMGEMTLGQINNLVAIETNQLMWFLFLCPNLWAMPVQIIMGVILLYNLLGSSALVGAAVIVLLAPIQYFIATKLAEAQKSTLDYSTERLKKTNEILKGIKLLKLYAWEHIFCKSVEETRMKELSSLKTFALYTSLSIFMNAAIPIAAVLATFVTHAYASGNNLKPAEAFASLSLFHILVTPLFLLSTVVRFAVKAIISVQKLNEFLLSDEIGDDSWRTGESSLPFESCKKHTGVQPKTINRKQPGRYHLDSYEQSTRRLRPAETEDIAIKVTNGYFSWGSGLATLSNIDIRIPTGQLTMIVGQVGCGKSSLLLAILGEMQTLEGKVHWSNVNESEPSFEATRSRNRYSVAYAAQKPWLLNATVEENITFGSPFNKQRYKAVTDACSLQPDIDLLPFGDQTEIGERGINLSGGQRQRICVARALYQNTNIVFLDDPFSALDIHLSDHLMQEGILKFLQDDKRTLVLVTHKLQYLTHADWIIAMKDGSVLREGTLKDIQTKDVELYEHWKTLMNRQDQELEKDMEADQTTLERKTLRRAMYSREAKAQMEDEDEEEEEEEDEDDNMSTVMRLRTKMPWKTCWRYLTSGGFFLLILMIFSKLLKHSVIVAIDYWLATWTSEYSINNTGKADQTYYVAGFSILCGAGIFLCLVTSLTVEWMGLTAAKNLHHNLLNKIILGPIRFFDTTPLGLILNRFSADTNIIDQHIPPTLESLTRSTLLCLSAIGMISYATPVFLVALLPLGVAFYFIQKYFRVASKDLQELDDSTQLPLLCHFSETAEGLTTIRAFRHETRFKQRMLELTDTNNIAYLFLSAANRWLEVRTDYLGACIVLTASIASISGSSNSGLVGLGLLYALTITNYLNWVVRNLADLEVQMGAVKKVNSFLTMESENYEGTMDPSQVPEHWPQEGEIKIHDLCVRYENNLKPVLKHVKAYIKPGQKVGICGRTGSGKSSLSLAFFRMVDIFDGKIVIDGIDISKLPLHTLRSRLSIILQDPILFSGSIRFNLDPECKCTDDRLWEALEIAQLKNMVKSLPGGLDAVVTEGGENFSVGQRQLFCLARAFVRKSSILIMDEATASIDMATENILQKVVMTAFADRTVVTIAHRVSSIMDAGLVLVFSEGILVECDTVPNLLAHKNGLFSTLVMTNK
Details: key: Yes: The compound has been demonstrated to inhibit the particular current (reference within parenthesis).; No: The compound has been demonstrated to not inhibit the particular current (reference within parenthesis).; U: No data regarding interaction of the compound with the particular current has been found in the literature. As to conditions: Table 2, literature; cited from earlier work.
For the molecule `CC(C)N(CCC(C(N)=O)(c1ccccc1)c1ccccn1)C(C)C` (stereo not shown) [Disopyramide], the “Blocking activity on IK(ATP)” value is reported as “Yes”.
With `O=C(NCC1CCCCN1)c1cc(OCC(F)(F)F)ccc1OCC(F)(F)F` (stereo not shown) [Flecainide], the “Blocking activity on IK(ATP)” value was “Yes”.
Turning to `C=C[C@H]1C[N@@]2CC[C@H]1C[C@@H]2[C@@H](O)c1ccnc2ccc(OC)cc12` [Quinidine], the “Blocking activity on IK(ATP)” value was “Yes”.

The test system of a further data set is IK1, inward rectifier K-current. Also on record: key: Yes: The compound has been demonstrated to inhibit the particular current (reference within parenthesis).; No: The compound has been demonstrated to not inhibit the particular current (reference within parenthesis).; U: No data regarding interaction of the compound with the particular current has been found in the literature. As to conditions: Table 2, literature; cited from earlier work.
Take `CCN(CC)CCCN(c1ccccc1)C1Cc2ccccc2C1` [Aprinidine]: the “Blocking activity on IK1” value is reported as “No”.
As to `CC(C)N(CCC(C(N)=O)(c1ccccc1)c1ccccn1)C(C)C` (stereo not shown) [Disopyramide], the “Blocking activity on IK1” value is on record as “No”.
In the case of `O=C(NCC1CCCCN1)c1cc(OCC(F)(F)F)ccc1OCC(F)(F)F` (stereo not shown) [Flecainide], the “Blocking activity on IK1” value is “No”.
`C=C[C@H]1C[N@@]2CC[C@H]1C[C@@H]2[C@@H](O)c1ccnc2ccc(OC)cc12` [Quinidine]: the “Blocking activity on IK1” value is recorded as “No”.

Another data set concerns the target IKs, slow component of the delayed rectifier K-current (Homo sapiens, UniProt P51787). Also on record: key: Yes: The compound has been demonstrated to inhibit the particular current (reference within parenthesis).; No: The compound has been demonstrated to not inhibit the particular current (reference within parenthesis).; U: No data regarding interaction of the compound with the particular current has been found in the literature. Particulars: Table 2, literature; cited from earlier work.
As for `CCN(CC)CCCN(c1ccccc1)C1Cc2ccccc2C1` [Aprinidine], the “Blocking activity on IKs” value is given as “No”.
As for `CC(C)N(CCC(C(N)=O)(c1ccccc1)c1ccccn1)C(C)C` (stereo not shown) [Disopyramide], the “Blocking activity on IKs” value is “Yes”.
Consider `CCCCc1oc2ccc(NS(C)(=O)=O)cc2c1C(=O)c1ccc(OCCCN(CCCC)CCCC)cc1` [Dronedarone], for which the “Blocking activity on IKs” value is “Yes”.
Regarding `O=C(NCC1CCCCN1)c1cc(OCC(F)(F)F)ccc1OCC(F)(F)F` (stereo not shown) [Flecainide], the “Blocking activity on IKs” value is “No”.
Consider `C=C[C@H]1C[N@@]2CC[C@H]1C[C@@H]2[C@@H](O)c1ccnc2ccc(OC)cc12` [Quinidine], for which the “Blocking activity on IKs” value is listed as “No”.

For a further data set, the system named is Ito, transient outward K-current. Details: key: Yes: The compound has been demonstrated to inhibit the particular current (reference within parenthesis).; No: The compound has been demonstrated to not inhibit the particular current (reference within parenthesis).; U: No data regarding interaction of the compound with the particular current has been found in the literature. As to conditions: Table 2, literature; cited from earlier work.
For `CCN(CC)CCCN(c1ccccc1)C1Cc2ccccc2C1` [Aprinidine], the “Blocking activity on Ito” value is on record as “Yes”.
As to `CC(C)N(CCC(C(N)=O)(c1ccccc1)c1ccccn1)C(C)C` (stereo not shown) [Disopyramide], the “Blocking activity on Ito” value is given as “Yes”.
Consider `O=C(NCC1CCCCN1)c1cc(OCC(F)(F)F)ccc1OCC(F)(F)F` (stereo not shown) [Flecainide], for which the “Blocking activity on Ito” value is given as “Yes”.
For `C=C[C@H]1C[N@@]2CC[C@H]1C[C@@H]2[C@@H](O)c1ccnc2ccc(OC)cc12` [Quinidine], the “Blocking activity on Ito” value is on record as “Yes”.

The next data set deals with INa, depolarizing Na-current (Homo sapiens, UniProt Q14524). Details: key: Yes: The compound has been demonstrated to inhibit the particular current (reference within parenthesis).; No: The compound has been demonstrated to not inhibit the particular current (reference within parenthesis).; U: No data regarding interaction of the compound with the particular current has been found in the literature. Particulars: Table 2, literature; cited from earlier work.
Sequence of INa, depolarizing Na-current (Q14524 whole entry): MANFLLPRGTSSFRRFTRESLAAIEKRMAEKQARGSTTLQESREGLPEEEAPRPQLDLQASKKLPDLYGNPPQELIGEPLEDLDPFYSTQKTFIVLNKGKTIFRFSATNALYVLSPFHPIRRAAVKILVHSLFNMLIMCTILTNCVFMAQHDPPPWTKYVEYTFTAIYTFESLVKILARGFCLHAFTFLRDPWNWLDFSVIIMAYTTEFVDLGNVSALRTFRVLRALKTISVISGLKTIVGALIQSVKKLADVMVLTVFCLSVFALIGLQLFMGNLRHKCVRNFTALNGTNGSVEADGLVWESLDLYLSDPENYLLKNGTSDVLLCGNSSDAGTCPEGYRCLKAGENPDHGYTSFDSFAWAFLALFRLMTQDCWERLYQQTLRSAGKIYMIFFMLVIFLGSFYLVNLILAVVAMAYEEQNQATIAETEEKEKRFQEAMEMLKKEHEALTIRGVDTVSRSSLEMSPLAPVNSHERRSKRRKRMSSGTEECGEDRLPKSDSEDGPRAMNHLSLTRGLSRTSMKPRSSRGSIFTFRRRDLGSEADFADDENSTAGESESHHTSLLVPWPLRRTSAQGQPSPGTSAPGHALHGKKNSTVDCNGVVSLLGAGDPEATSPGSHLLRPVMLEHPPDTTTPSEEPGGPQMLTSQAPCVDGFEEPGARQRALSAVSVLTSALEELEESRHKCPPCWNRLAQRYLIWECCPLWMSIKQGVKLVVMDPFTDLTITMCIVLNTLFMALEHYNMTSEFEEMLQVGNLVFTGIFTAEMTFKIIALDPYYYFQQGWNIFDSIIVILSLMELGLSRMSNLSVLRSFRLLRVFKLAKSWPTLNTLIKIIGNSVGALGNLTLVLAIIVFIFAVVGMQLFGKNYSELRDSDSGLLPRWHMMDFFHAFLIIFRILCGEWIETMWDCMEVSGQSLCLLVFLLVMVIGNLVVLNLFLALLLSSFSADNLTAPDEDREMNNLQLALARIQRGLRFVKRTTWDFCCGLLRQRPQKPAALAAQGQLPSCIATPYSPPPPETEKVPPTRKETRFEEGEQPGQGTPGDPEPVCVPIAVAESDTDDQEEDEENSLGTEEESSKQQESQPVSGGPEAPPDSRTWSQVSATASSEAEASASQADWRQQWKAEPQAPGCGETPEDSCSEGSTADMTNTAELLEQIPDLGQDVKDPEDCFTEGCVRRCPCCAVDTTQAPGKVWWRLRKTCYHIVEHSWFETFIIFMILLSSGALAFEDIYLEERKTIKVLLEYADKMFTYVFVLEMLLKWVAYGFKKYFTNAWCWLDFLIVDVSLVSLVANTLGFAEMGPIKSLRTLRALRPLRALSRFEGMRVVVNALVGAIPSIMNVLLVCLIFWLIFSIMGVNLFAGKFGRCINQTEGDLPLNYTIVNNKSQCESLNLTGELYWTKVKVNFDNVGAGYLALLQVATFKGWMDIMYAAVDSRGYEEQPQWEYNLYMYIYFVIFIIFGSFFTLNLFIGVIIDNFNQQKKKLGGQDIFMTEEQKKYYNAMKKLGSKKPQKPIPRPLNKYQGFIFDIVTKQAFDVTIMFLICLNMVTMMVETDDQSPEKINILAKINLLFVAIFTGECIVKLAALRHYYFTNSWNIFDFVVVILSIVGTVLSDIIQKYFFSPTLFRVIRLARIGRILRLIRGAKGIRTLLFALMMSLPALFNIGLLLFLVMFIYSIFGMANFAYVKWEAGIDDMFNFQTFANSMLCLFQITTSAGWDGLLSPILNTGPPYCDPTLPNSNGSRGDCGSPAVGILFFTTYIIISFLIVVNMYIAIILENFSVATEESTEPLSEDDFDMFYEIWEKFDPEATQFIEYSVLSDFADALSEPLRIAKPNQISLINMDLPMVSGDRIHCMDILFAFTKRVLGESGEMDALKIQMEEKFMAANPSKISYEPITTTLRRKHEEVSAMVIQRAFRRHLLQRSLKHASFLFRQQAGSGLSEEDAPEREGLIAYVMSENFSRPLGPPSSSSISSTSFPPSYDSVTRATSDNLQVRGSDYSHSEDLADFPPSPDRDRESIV
As for `CCN(CC)CCCN(c1ccccc1)C1Cc2ccccc2C1` [Aprinidine], the “Blocking activity on INa” value is recorded as “Yes”.
Consider `CC(C)N(CCC(C(N)=O)(c1ccccc1)c1ccccn1)C(C)C` (stereo not shown) [Disopyramide], for which the “Blocking activity on INa” value was “Yes”.
With `CCCCc1oc2ccc(NS(C)(=O)=O)cc2c1C(=O)c1ccc(OCCCN(CCCC)CCCC)cc1` [Dronedarone], the “Blocking activity on INa” value is “Yes”.
Take `O=C(NCC1CCCCN1)c1cc(OCC(F)(F)F)ccc1OCC(F)(F)F` (stereo not shown) [Flecainide]: the “Blocking activity on INa” value was “Yes”.
Consider `C=C[C@H]1C[N@@]2CC[C@H]1C[C@@H]2[C@@H](O)c1ccnc2ccc(OC)cc12` [Quinidine], for which the “Blocking activity on INa” value is reported as “Yes”.
